Reference: PubChem BioAssay AID330 (DTP/NCI, 2004)
“And” between values parts separate entries of the source, which are not always exact repeats. Equal values may be shown once. Inconclusive results and toxic doses are left out. How the source made its calls: active means survival T/C of 150% or more; inactive means T/C below 125% in these data.

Test system: P388 leukemia ip, CD2F1 mice, survival T/C
Assay: NCI In Vivo Anticancer Drug Screen. Data for tumor model P388 Leukemia (intraperitoneal) in CD2F1 (CDF1) mice
Details: endpoint: median survival time, higher = longer survival
Method in brief: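 Mice carrying the transplanted tumor received test compound or vehicle. Survival was recorded in each group, and the value is the treated-group measurement divided by that of the vehicle-treated control group.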

[1] = dose: 100.0 mg/kg/injection, schedule: Q04DX003 (ip), vehicle: Klucel (hydroxypropylcellulose) (HPC)
[2] = dose: 60.0 mg/kg/injection, schedule: Q01DX005 (ip), vehicle: saline with Tween-80
[3] = dose: 120.0 mg/kg/injection, schedule: Q01DX005 (ip), vehicle: saline with Tween-80
[4] = dose: 240.0 mg/kg/injection, schedule: Q01DX005 (ip), vehicle: saline with Tween-80
[5] = dose: 50.0 mg/kg/injection, schedule: Q01DX009 (ip), vehicle: saline with Tween-80
[6] = dose: 100.0 mg/kg/injection, schedule: Q01DX009 (ip), vehicle: saline with Tween-80
[7] = dose: 25.0 mg/kg/injection, schedule: Q01DX009 (ip), vehicle: saline with Tween-80
[8] = dose: 100.0 mg/kg/injection, schedule: Q01DX009 (ip), vehicle: saline
[9] = dose: 200.0 mg/kg/injection, schedule: Q01DX009 (ip), vehicle: saline
[10] = dose: 25.0 mg/kg/injection, schedule: Q04DX002 (ip), vehicle: saline with Tween-80
[11] = dose: 6.25 mg/kg/injection, schedule: Q01DX009 (ip), vehicle: saline with Tween-80
[12] = dose: 12.5 mg/kg/injection, schedule: Q01DX009 (ip), vehicle: saline with Tween-80

Measured: T/C

CCCCC(CCC)(CCC)CCN
inactive: dose: 2.5 mg/kg/injection, schedule: Q01DX009 (ip), vehicle: suspension in saline 104 % of control and 105 % of control | dose: 5.0 mg/kg/injection, schedule: Q01DX009 (ip), vehicle: suspension in saline 100 % of control and 105 % of control | dose: 10.0 mg/kg/injection, schedule: Q01DX009 (ip), vehicle: suspension in saline 122 % of control and 97 % of control | dose: 20.0 mg/kg/injection, schedule: Q01DX009 (ip), vehicle: suspension in saline 106 % of control

CC(=O)CC(C)(C)C(C#N)c1ccccc1 (stereo not given)
inactive: [1] 99 % of control | dose: 200.0 mg/kg/injection, schedule: Q04DX003 (ip), vehicle: Klucel (hydroxypropylcellulose) (HPC) 115 % of control | dose: 400.0 mg/kg/injection, schedule: Q04DX003 (ip), vehicle: Klucel (hydroxypropylcellulose) (HPC) 98 % of control

COP(=O)(N/N=C/C(=O)O)OC
inactive: dose: 12.5 mg/kg/injection, schedule: Q01DX009 (ip), vehicle: water 104 % of control | dose: 25.0 mg/kg/injection, schedule: Q01DX009 (ip), vehicle: water 103 % of control | dose: 50.0 mg/kg/injection, schedule: Q01DX009 (ip), vehicle: water 101 % of control | dose: 100.0 mg/kg/injection, schedule: Q01DX009 (ip), vehicle: water 96 % of control | dose: 200.0 mg/kg/injection, schedule: Q01DX009 (ip), vehicle: water 95 % of control

CCC(O)(c1ccccc1)c1cnc(C)n1Cc1ccccc1 (stereo not given)
inactive: [2] 91 % of control | [3] 88 % of control | [4] 89 % of control

CCCCCCCCCCCCOP(=O)(CC(=O)NCc1cc(C(C)(C)C)c(O)c(C(C)(C)C)c1)OCCCCCCCCCCCC
inactive: [5] 92 % of control | [6] 92 % of control | dose: 200.0 mg/kg/injection, schedule: Q01DX009 (ip), vehicle: saline with Tween-80 90 % of control

c1ccc(N=P(c2ccccc2)(c2ccccc2)c2ccccc2)cc1
inactive: [7] 96 % of control | [5] 108 % of control | [6] 108 % of control

O=C1Cc2ccccc2N1
inactive: dose: 50.0 mg/kg/injection, schedule: Q01DX009 (ip), vehicle: saline 116 % of control | [8] 107 % of control | [9] 105 % of control

CC(=C\c1ccc(Cl)c(Cl)c1)/C(C)=N/NC(N)=Nc1ccccc1
inactive: [10] 105 % of control | dose: 50.0 mg/kg/injection, schedule: Q04DX002 (ip), vehicle: saline with Tween-80 103 % of control

O=C1CCC(C(=O)O)C(C(=O)O)C1 (stereo not given)
inactive: dose: 50.0 mg/kg/injection, schedule: Q01DX001 (ip), vehicle: saline 107 % of control | dose: 100.0 mg/kg/injection, schedule: Q01DX001 (ip), vehicle: saline 100 % of control | dose: 200.0 mg/kg/injection, schedule: Q01DX001 (ip), vehicle: saline 101 % of control | dose: 400.0 mg/kg/injection, schedule: Q01DX001 (ip), vehicle: saline 107 % of control

NC(=O)N=Nc1ccc(Cl)c(Cl)c1
inactive: dose: 50.0 mg/kg/injection, schedule: Q01DX005 (ip), vehicle: saline with Tween-80 100 % of control | dose: 100.0 mg/kg/injection, schedule: Q01DX005 (ip), vehicle: saline with Tween-80 102 % of control | dose: 200.0 mg/kg/injection, schedule: Q01DX005 (ip), vehicle: saline with Tween-80 102 % of control

COc1cc(C=C2C(=O)C=CC2=O)ccc1OCc1ccccc1
inactive: dose: 2.5 mg/kg/injection, schedule: Q04DX002 (ip), vehicle: saline with Tween-80 102 % of control | dose: 5.0 mg/kg/injection, schedule: Q04DX002 (ip), vehicle: saline with Tween-80 113 % of control | dose: 10.0 mg/kg/injection, schedule: Q04DX002 (ip), vehicle: saline with Tween-80 107 % of control | [10] 111 % of control

CCN1C(=O)CC([Se]c2ccccc2)C1=O (stereo not given)
inactive: dose: 6.25 mg/kg/injection, schedule: Q04DX003 (ip), vehicle: Klucel (hydroxypropylcellulose) (HPC) 99 % of control and 103 % of control | dose: 12.5 mg/kg/injection, schedule: Q04DX003 (ip), vehicle: Klucel (hydroxypropylcellulose) (HPC) 99 % of control and 102 % of control | dose: 25.0 mg/kg/injection, schedule: Q04DX003 (ip), vehicle: Klucel (hydroxypropylcellulose) (HPC) 100 % of control and 105 % of control | dose: 50.0 mg/kg/injection, schedule: Q04DX003 (ip), vehicle: Klucel (hydroxypropylcellulose) (HPC) 103 % of control and 104 % of control | [1] 100 % of control and 104 % of control

CNC(=O)Nc1ccc(C2(C)SCCS2)cc1
inactive: [2] 97 % of control | [3] 87 % of control | [4] 90 % of control

O=C(c1ccccc1)c1nonc1C(=O)c1ccccc1
inactive: dose: 100.0 mg/kg/injection, schedule: Q01DX001 (ip), vehicle: saline with Tween-80 95 % of control | dose: 200.0 mg/kg/injection, schedule: Q01DX001 (ip), vehicle: saline with Tween-80 104 % of control | dose: 400.0 mg/kg/injection, schedule: Q01DX001 (ip), vehicle: saline with Tween-80 95 % of control

O=S(=O)(c1ccccc1)N(Cl)Cl
inactive: [11] 102 % of control and 104 % of control and 123 % of control | [12] 104 % of control and 120 % of control and 93 % of control | [5] 111 % of control

CCCCCCn1[nH]nc(C(=O)OC)c1=O (tested in a mixture with another compound)
inactive: dose: 50.0 mg/kg/injection, schedule: Q01DX005 (ip), vehicle: Klucel (hydroxypropylcellulose) (HPC) 94 % of control | dose: 100.0 mg/kg/injection, schedule: Q01DX005 (ip), vehicle: Klucel (hydroxypropylcellulose) (HPC) 87 % of control | dose: 200.0 mg/kg/injection, schedule: Q01DX005 (ip), vehicle: Klucel (hydroxypropylcellulose) (HPC) 92 % of control

C[n+]1cccc2c1C(=O)C(=O)c1ncccc1-2
inactive: [12] 100 % of control | [7] 108 % of control | [5] 109 % of control

O=C1c2ccccc2C(=O)N1Cc1ccccc1[N+](=O)[O-]
inactive: [11] 95 % of control | [12] 88 % of control | [7] 89 % of control | [8] 98 % of control | [9] 102 % of control

COC(=O)C1c2cc3c(c(O)c2CCC1(C)O)C(=O)c1c(O)cc2c(c1C3=O)OC1OC2(C)C(O)C(N(C)C)C1O (stereo not given)
inactive: dose: 6.25 mg/kg/injection, schedule: Q01DX009 (ip), vehicle: saline 117 % of control | dose: 12.5 mg/kg/injection, schedule: Q01DX009 (ip), vehicle: saline 120 % of control | dose: 25.0 mg/kg/injection, schedule: Q04DX003 (ip), vehicle: saline 115 % of control | dose: 50.0 mg/kg/injection, schedule: Q04DX003 (ip), vehicle: saline 114 % of control | dose: 100.0 mg/kg/injection, schedule: Q04DX003 (ip), vehicle: saline 115 % of control

COc1ccc(NS(=O)(=O)c2ccc(NCc3c4ccccc4nc4ccccc34)cc2)nn1
inactive: dose: 12.5 mg/kg/injection, schedule: Q04DX002 (ip), vehicle: Klucel (hydroxypropylcellulose) (HPC) 96 % of control | dose: 25.0 mg/kg/injection, schedule: Q04DX002 (ip), vehicle: Klucel (hydroxypropylcellulose) (HPC) 99 % of control | dose: 50.0 mg/kg/injection, schedule: Q04DX002 (ip), vehicle: Klucel (hydroxypropylcellulose) (HPC) 89 % of control | dose: 100.0 mg/kg/injection, schedule: Q04DX002 (ip), vehicle: Klucel (hydroxypropylcellulose) (HPC) 87 % of control | dose: 200.0 mg/kg/injection, schedule: Q04DX002 (ip), vehicle: Klucel (hydroxypropylcellulose) (HPC) 91 % of control | dose: 400.0 mg/kg/injection, schedule: Q04DX002 (ip), vehicle: Klucel (hydroxypropylcellulose) (HPC) 93 % of control

NCC(O)c1ccc(Nc2ccnc3cc(Cl)ccc23)cc1 (stereo not given)
inactive: dose: 50.0 mg/kg/injection, schedule: Q01DX005 (ip), vehicle: saline 114 % of control | dose: 100.0 mg/kg/injection, schedule: Q01DX005 (ip), vehicle: saline 105 % of control
